Reference: ChEMBL document CHEMBL2311281, “Novel berberine triazoles: synthesis, antimicrobial evaluation and competitive interactions with metal ions to human serum albumin” (Bioorg Med Chem Lett, 2013)
Values after ≈ are worked out from the molar mass of the structure shown.

Experiments:
[1] = tested on: Proteus vulgaris; assay: Antibacterial activity against Proteus vulgaris by two fold serial dilution method; type: functional
[2] = tested on: Pseudomonas aeruginosa; assay: Antibacterial activity against Pseudomonas aeruginosa by two fold serial dilution method; type: functional
[3] = tested on: Shigella dysenteriae; assay: Antibacterial activity against Shigella dysenteriae by two fold serial dilution method; type: functional
[4] = tested on: Escherichia coli; assay: Antibacterial activity against Escherichia coli DH52 by two fold serial dilution method; type: functional
[5] = tested on: Bacillus subtilis; assay: Antibacterial activity against Bacillus subtilis by two fold serial dilution method; type: functional
[6] = tested on: Micrococcus luteus; assay: Antibacterial activity against Micrococcus luteus ATCC 4698 by two fold serial dilution method; type: functional
[7] = tested on: Staphylococcus aureus; assay: Antibacterial activity against Staphylococcus aureus ATCC 25923 by two fold serial dilution method; type: functional
[8] = tested on: Staphylococcus aureus; assay: Antibacterial activity against methicillin-resistant Staphylococcus aureus N315 by two fold serial dilution method; type: functional
[9] = tested on: Staphylococcus aureus; assay: Potency index, ratio of MIC for berberine to MIC compound against methicillin-resistant Staphylococcus aureus N315 by two fold serial dilution method; type: functional
[10] = tested on: Staphylococcus aureus; assay: Potency index, ratio of MIC for chloromycin to MIC compound against methicillin-resistant Staphylococcus aureus N315 by two fold serial dilution method; type: functional
[11] = biological target: T1, Albumin (Homo sapiens, UniProt P02768); assay: Ratio of binding affinity to HSA in presence of Fe3+ ions to binding affinity to HSA in absence of metal ions; type: ADME; settings: isolated protein
[12] = biological target: T1, Albumin; assay: Ratio of binding affinity to HSA in presence of Mg2+ ions to binding affinity to HSA in absence of metal ions; type: ADME; settings: isolated protein
[13] = biological target: T1, Albumin; assay: Ratio of binding affinity to HSA in presence of Zn2+ ions to binding affinity to HSA in absence of metal ions; type: ADME; settings: isolated protein
[14] = biological target: T1, Albumin; assay: Ratio of binding affinity to HSA in presence of Pb2+ ions to binding affinity to HSA in absence of metal ions; type: ADME; settings: isolated protein
[15] = biological target: T1, Albumin; assay: Ratio of binding affinity to HSA in presence of Ni2+ ions to binding affinity to HSA in absence of metal ions; type: ADME; settings: isolated protein
[16] = biological target: T1, Albumin; assay: Ratio of binding affinity to HSA in presence of K+ ions to binding affinity to HSA in absence of metal ions; type: ADME; settings: isolated protein
[17] = biological target: T1, Albumin; assay: Ratio of binding affinity to HSA in presence of La3+ ions to binding affinity to HSA in absence of metal ions; type: ADME; settings: isolated protein
[18] = biological target: T1, Albumin; assay: Ratio of binding affinity to HSA in presence of Cu2+ ions to binding affinity to HSA in absence of metal ions; type: ADME; settings: isolated protein
[19] = biological target: T1, Albumin; assay: Ratio of binding affinity to HSA in presence of Ce3+ ions to binding affinity to HSA in absence of metal ions; type: ADME; settings: isolated protein
[20] = biological target: T1, Albumin; assay: Ratio of binding affinity to HSA in presence of Ca2+ ions to binding affinity to HSA in absence of metal ions; type: ADME; settings: isolated protein

T1 sequence (P02768 whole entry): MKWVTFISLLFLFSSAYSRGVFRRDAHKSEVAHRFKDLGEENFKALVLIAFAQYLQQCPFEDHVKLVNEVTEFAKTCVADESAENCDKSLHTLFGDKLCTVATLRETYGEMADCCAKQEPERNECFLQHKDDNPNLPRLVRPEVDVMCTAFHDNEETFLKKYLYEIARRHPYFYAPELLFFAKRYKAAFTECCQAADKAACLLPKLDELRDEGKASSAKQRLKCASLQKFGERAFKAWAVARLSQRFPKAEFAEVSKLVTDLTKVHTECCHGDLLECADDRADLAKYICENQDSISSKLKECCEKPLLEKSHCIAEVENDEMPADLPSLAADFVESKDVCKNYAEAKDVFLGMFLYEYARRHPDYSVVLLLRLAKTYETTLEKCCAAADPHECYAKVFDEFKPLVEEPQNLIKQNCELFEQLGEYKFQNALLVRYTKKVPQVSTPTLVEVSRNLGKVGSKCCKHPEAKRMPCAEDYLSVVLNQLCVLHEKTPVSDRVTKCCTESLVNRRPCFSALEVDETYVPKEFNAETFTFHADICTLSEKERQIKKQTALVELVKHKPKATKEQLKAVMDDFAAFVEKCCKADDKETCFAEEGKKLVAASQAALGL

| Structure (SMILES) | MIC [1] | MIC [2] | MIC [3] | MIC [4] | MIC [5] | MIC [6] | MIC [7] | MIC [8] | Ratio [9] | Ratio [10] | Ratio [11] | Ratio [12] | Ratio [13] | Ratio [14] | Ratio [15] | Ratio [16] | Ratio [17] | Ratio [18] | Ratio [19] | Ratio [20] |
| --- | --- | --- | --- | --- | --- | --- | --- | --- | --- | --- | --- | --- | --- | --- | --- | --- | --- | --- | --- | --- |
| COc1ccc2cc3[n+](cc2c1OCCN(CCn1cncn1)Cc1cccc(Cl)c1)CCc1cc2c(cc1-3)OCO2.[Cl-] | 32 µg/mL | 32 µg/mL | 32 µg/mL | 8 µg/mL | 16 µg/mL | 32 µg/mL | 8 µg/mL | 32 µg/mL | – | – | – | – | – | – | – | – | – | – | – | – |
| Fc1ccc(CN(CCBr)CCn2cncn2)c(F)c1 | 128 µg/mL (≈ 371 µM) | 128 µg/mL (≈ 371 µM) | 64 µg/mL (≈ 185 µM) | 32 µg/mL (≈ 92.7 µM) | 256 µg/mL (≈ 742 µM) | 32 µg/mL (≈ 92.7 µM) | 64 µg/mL (≈ 185 µM) | 128 µg/mL (≈ 371 µM) | – | – | – | – | – | – | – | – | – | – | – | – |
| O=C(N[C@H](CO)[C@H](O)c1ccc([N+](=O)[O-])cc1)C(Cl)Cl [CHLORAMPHENICOL] | 32 µg/mL (≈ 99 µM) | 32 µg/mL (≈ 99 µM) | 32 µg/mL (≈ 99 µM) | 32 µg/mL (≈ 99 µM) | 32 µg/mL (≈ 99 µM) | 8 µg/mL (≈ 24.8 µM) | 16 µg/mL (≈ 49.5 µM) | 16 µg/mL (≈ 49.5 µM) | – | – | – | – | – | – | – | – | – | – | – | – |
| COc1ccc2cc3[n+](cc2c1OCCN(CCn1cncn1)Cc1ccccc1F)CCc1cc2c(cc1-3)OCO2.[Cl-] | 4 µg/mL | 8 µg/mL | 4 µg/mL | 4 µg/mL | 8 µg/mL | 8 µg/mL | 4 µg/mL | 8 µg/mL | 16 | 2 | – | – | – | – | – | – | – | – | – | – |
| COc1ccc2cc3[n+](cc2c1OCCN(CCn1cncn1)Cc1ccc(F)cc1F)CCc1cc2c(cc1-3)OCO2.[Cl-] | 2 µg/mL | 8 µg/mL | 4 µg/mL | 4 µg/mL | 8 µg/mL | 8 µg/mL | 4 µg/mL | 8 µg/mL | 16 | 2 | 1.116 | 1.064 | 0.871 | 0.963 | 0.839 | 0.943 | 0.883 | 0.972 | 0.998 | 0.956 |
| COc1ccc2cc3[n+](cc2c1OCCN(CCn1cncn1)Cc1ccccc1Cl)CCc1cc2c(cc1-3)OCO2.[Cl-] | 16 µg/mL | 32 µg/mL | 32 µg/mL | 8 µg/mL | 8 µg/mL | 32 µg/mL | 8 µg/mL | 16 µg/mL | – | – | – | – | – | – | – | – | – | – | – | – |
| Clc1ccc(CN(CCBr)CCn2cncn2)cc1Cl | 256 µg/mL (≈ 677 µM) | 128 µg/mL (≈ 339 µM) | 128 µg/mL (≈ 339 µM) | 32 µg/mL (≈ 84.6 µM) | 256 µg/mL (≈ 677 µM) | 32 µg/mL (≈ 84.6 µM) | 64 µg/mL (≈ 169 µM) | 256 µg/mL (≈ 677 µM) | – | – | – | – | – | – | – | – | – | – | – | – |
| COc1ccc2cc3[n+](cc2c1OCCN(CCn1cncn1)Cc1ccc(Cl)cc1Cl)CCc1cc2c(cc1-3)OCO2.[Cl-] | 8 µg/mL | 16 µg/mL | 8 µg/mL | 4 µg/mL | 8 µg/mL | 16 µg/mL | 8 µg/mL | 8 µg/mL | 16 | 2 | – | – | – | – | – | – | – | – | – | – |
| COc1ccc2cc3[n+](cc2c1OCCN(CCn1cncn1)Cc1ccc(Cl)cc1)CCc1cc2c(cc1-3)OCO2.[Cl-] | 32 µg/mL | 16 µg/mL | 8 µg/mL | 16 µg/mL | 8 µg/mL | 16 µg/mL | 16 µg/mL | 16 µg/mL | – | – | – | – | – | – | – | – | – | – | – | – |
| Clc1ccc(CN(CCBr)CCn2cncn2)c(Cl)c1 | 128 µg/mL (≈ 339 µM) | 128 µg/mL (≈ 339 µM) | 128 µg/mL (≈ 339 µM) | 32 µg/mL (≈ 84.6 µM) | 256 µg/mL (≈ 677 µM) | 32 µg/mL (≈ 84.6 µM) | 64 µg/mL (≈ 169 µM) | 256 µg/mL (≈ 677 µM) | – | – | – | – | – | – | – | – | – | – | – | – |
| COc1ccc2cc3[n+](cc2c1OCCN(CCn1cncn1)Cc1ccc(Cl)c(Cl)c1)CCc1cc2c(cc1-3)OCO2.[Cl-] | 8 µg/mL | 16 µg/mL | 16 µg/mL | 8 µg/mL | 8 µg/mL | 16 µg/mL | 8 µg/mL | 16 µg/mL | – | – | – | – | – | – | – | – | – | – | – | – |
| Fc1cccc(CN(CCBr)CCn2cncn2)c1 | 256 µg/mL (≈ 782 µM) | 128 µg/mL (≈ 391 µM) | 64 µg/mL (≈ 196 µM) | 64 µg/mL (≈ 196 µM) | 256 µg/mL (≈ 782 µM) | 64 µg/mL (≈ 196 µM) | 64 µg/mL (≈ 196 µM) | 128 µg/mL (≈ 391 µM) | – | – | – | – | – | – | – | – | – | – | – | – |
| COc1ccc2cc3[n+](cc2c1OC)CCc1cc2c(cc1-3)OCO2 [BERBERINE] | 128 µg/mL | 256 µg/mL | 256 µg/mL | > 512 µg/mL | > 512 µg/mL | > 512 µg/mL | 512 µg/mL | 128 µg/mL | – | – | – | – | – | – | – | – | – | – | – | – |
| Clc1ccccc1CN(CCBr)CCn1cncn1 | 512 µg/mL (≈ 1490 µM) | 128 µg/mL (≈ 372 µM) | 256 µg/mL (≈ 745 µM) | 64 µg/mL (≈ 186 µM) | 256 µg/mL (≈ 745 µM) | 64 µg/mL (≈ 186 µM) | 128 µg/mL (≈ 372 µM) | 256 µg/mL (≈ 745 µM) | – | – | – | – | – | – | – | – | – | – | – | – |
| Clc1cccc(CN(CCBr)CCn2cncn2)c1 | > 512 µg/mL | 256 µg/mL (≈ 745 µM) | 256 µg/mL (≈ 745 µM) | 128 µg/mL (≈ 372 µM) | 256 µg/mL (≈ 745 µM) | 64 µg/mL (≈ 186 µM) | 128 µg/mL (≈ 372 µM) | 256 µg/mL (≈ 745 µM) | – | – | – | – | – | – | – | – | – | – | – | – |
| COc1ccc2cc3[n+](cc2c1OCCN(CCn1cncn1)Cc1cccc(F)c1)CCc1cc2c(cc1-3)OCO2.[Cl-] | 4 µg/mL | 8 µg/mL | 4 µg/mL | 8 µg/mL | 8 µg/mL | 16 µg/mL | 8 µg/mL | 8 µg/mL | 16 | 2 | – | – | – | – | – | – | – | – | – | – |
| Clc1ccc(CN(CCBr)CCn2cncn2)cc1 | 512 µg/mL (≈ 1490 µM) | 256 µg/mL (≈ 745 µM) | 256 µg/mL (≈ 745 µM) | 128 µg/mL (≈ 372 µM) | 256 µg/mL (≈ 745 µM) | 512 µg/mL (≈ 1490 µM) | 128 µg/mL (≈ 372 µM) | 256 µg/mL (≈ 745 µM) | – | – | – | – | – | – | – | – | – | – | – | – |
| CCn1cc(C(=O)O)c(=O)c2cc(F)c(N3CCNCC3)cc21 [NORFLOXACIN] | 8 µg/mL (≈ 25.1 µM) | 16 µg/mL (≈ 50.1 µM) | 4 µg/mL (≈ 12.5 µM) | 16 µg/mL (≈ 50.1 µM) | 1 µg/mL (≈ 3.13 µM) | 2 µg/mL (≈ 6.26 µM) | 0.5 µg/mL (≈ 1.57 µM) | 8 µg/mL (≈ 25.1 µM) | – | – | – | – | – | – | – | – | – | – | – | – |
| Fc1ccccc1CN(CCBr)CCn1cncn1 | 256 µg/mL (≈ 782 µM) | 128 µg/mL (≈ 391 µM) | 64 µg/mL (≈ 196 µM) | 32 µg/mL (≈ 97.8 µM) | 256 µg/mL (≈ 782 µM) | 64 µg/mL (≈ 196 µM) | 64 µg/mL (≈ 196 µM) | 128 µg/mL (≈ 391 µM) | – | – | – | – | – | – | – | – | – | – | – | – |
